According to ChEMBL document CHEMBL3886176, “TSH receptor antagonizing tetrahydroquinoline compounds” (2015):

Molecular target: Thyrotropin receptor (Homo sapiens, UniProt P16473)
Type: functional, cell-based, CHO

Sequence of Thyrotropin receptor (P16473 whole entry): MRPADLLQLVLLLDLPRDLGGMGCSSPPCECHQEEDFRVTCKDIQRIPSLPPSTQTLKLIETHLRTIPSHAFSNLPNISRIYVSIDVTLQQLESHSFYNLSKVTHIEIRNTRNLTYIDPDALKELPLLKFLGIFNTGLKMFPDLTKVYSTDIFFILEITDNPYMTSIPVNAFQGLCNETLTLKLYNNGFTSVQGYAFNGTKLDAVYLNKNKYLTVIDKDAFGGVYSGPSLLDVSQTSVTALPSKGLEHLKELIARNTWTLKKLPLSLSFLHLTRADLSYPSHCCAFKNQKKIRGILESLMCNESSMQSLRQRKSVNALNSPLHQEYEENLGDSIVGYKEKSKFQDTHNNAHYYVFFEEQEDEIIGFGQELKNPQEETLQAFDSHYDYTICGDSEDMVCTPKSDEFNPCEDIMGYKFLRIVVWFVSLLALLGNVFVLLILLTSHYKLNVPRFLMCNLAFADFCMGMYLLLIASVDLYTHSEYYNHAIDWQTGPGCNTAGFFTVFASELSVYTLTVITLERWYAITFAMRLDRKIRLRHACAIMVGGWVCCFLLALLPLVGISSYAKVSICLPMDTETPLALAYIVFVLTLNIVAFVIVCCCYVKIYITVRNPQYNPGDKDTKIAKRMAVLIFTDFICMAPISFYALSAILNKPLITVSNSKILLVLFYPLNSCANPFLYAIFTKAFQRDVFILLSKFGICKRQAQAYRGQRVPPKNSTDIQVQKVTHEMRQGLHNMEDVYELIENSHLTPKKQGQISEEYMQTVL

## CC(=O)N1CCC(C)(c2ccccc2)c2cc(NC(=O)c3ccc(Br)s3)ccc21 (stereo unspecified)
  IC50: < 100 nM
